Data: ChEMBL document CHEMBL1130846, “A new class of sulfoxide surfactants derived from Tris. Synthesis and preliminary assessments of their properties” (Bioorg Med Chem Lett, 1998)
Converted amounts (≈) assume the structure as drawn.

Legend:
[1] = Water solubility was evaluated; format: ADME; conditions: read-out: Ws
[2] = organism: Rattus norvegicus; assay: Compound was evaluated for the amount of protein solubilized, expressed as percentage weight of freeze-dried microsomes (20 mg) of rat liver; format: functional
[3] = organism: Rattus norvegicus; assay: Compound was evaluated for the amount of protein solubilized, expressed as percentage weight of freeze-dried mitochondria (20 mg) of rat liver; format: functional, organism-based
[4] = organism: Rattus norvegicus; assay: Compound was evaluated for the amount of protein solubilized, expressed as percentage weight of freeze-dried nuclear membrane (100 mg) of rat liver; format: functional

SMILES	solubility [1] [µg/mL]	Weight [2] [%]	Weight [3] [%]	Weight [4] [%]
O=C(CC[S+]([O-])CCC(F)(F)C(F)(F)C(F)(F)C(F)(F)C(F)(F)C(F)(F)F)NC(CO[C@H]1O[C@@H](CO)[C@@H](O)[C@@H](O)[C@@H]1O)(CO[C@@H]1O[C@H](CO)[C@H](O)[C@H](O)[C@H]1O)CO[C@@H]1O[C@H](CO)[C@H](O)[C@H](O)[C@H]1O (some centres not stated)	> 10000			
CCCCCCCCCCCC[S+]([O-])CCC(=O)NC(CO)(CO)CO[C@@H]1O[C@H](CO)[C@H](O)[C@H](O)[C@H]1O (some centres not stated)	> 10000			
CC(C)(C)CC(C)(C)c1ccc(OCCO)cc1		76.2	74.9	62.2
CCCCCCCC[S+]([O-])CCC(=O)NC(CO)(CO)CO (configuration not stated)	> 10000	71	69.8	55.5
O=C(CC[S+]([O-])CCC(F)(F)C(F)(F)C(F)(F)C(F)(F)C(F)(F)C(F)(F)C(F)(F)C(F)(F)F)NC(CO)(CO)COC1O[C@H](CO)[C@H](O)[C@H](O)[C@H]1O (some centres not stated)	> 1500			
O=C(CC[S+]([O-])CCC(F)(F)C(F)(F)C(F)(F)C(F)(F)C(F)(F)C(F)(F)F)NC(CO)(CO)CO (configuration not stated)	1200 (≈ 2100 µM)	32.6	30.3	25.5
CCCCCCCCCCCCCCCC[S+]([O-])CCC(=O)NC(CO)(CO)CO (configuration not stated)	85 (≈ 189 µM)	58.4	58.6	45.7
CCCCCCCCCCCC[S+]([O-])CCC(=O)NC(CO)(CO)CO (configuration not stated)	> 6000	62.5	65.6	52.4
CCCCCCCCCC[S+]([O-])CCC(=O)NC(CO)(CO)CO (configuration not stated)	> 10000	68.9	71	57.4
O=C(CC[S+]([O-])CCC(F)(F)C(F)(F)C(F)(F)C(F)(F)C(F)(F)C(F)(F)C(F)(F)C(F)(F)F)NC(CO)(CO)CO (configuration not stated)	25 (≈ 37.2 µM)			
